# Test results: patent US20090005385A1, “Treatment or Prevention of Cancer or Cardiovascular Disease with Methenyltetrahydrofolate Synthetases” (CORNELL RESEARCH FOUNDATION, INC., priority 2004, published 2009)
# “And” between values parts separate entries of the source, which are not always exact repeats. Equal entries are not always repeated. Where two headings read alike, the source gives them in different places.
# How the values were obtained:
# [1] = target: T1, MTHFS (Mus musculus, UniProt Q9D110); experiment: Inhibition of MTHFS by folates/antifolates, reaction specificity (Ki, Km); assay type: biochemical; settings: for Km: substrate of MTHFS
# T1 sequence (Q9D110 1-203): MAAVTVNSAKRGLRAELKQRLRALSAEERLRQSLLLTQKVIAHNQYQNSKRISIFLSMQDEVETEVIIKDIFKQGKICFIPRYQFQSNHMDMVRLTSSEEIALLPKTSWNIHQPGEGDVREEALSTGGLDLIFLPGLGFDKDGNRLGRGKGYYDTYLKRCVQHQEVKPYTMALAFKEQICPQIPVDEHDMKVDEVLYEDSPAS
# Method: Tissue samples were sonicated four times for 15 s in a buffer containing 100 mM HEPES pH 7.0, 100 mM sodium chloride, 5 mM EDTA, 1% Tween-20. The solution was clarified by centrifugation. MTHFS activity was determined using a spectrophotometer by monitoring the appearance of 5,10-methenyltetrahydrofolate, which has an absorbance maximum at 355 nm. For a typical assay, 50 μL of clarified tissue supernatant was added to a quartz cuvette containing 100 μM (6S)-5-formylTHF, 1 mM Mg-ATP and 100 mM MES, pH 6.0 and the rate of 5,10-methenylTHF formation was quantified. Activity measurements were normalized to total protein that was quantified using the Lowry-Bensadoun method (Bensadoun et al., “Assay of Proteins in the Presence of Interfering Materials,” Anal Biochem 70:241-250 (1976), which is hereby incorporated by reference in its entirety).
# Several 10-formyl-substituted folates were screened for their ability to inhibit wild-type MTHFS.
# [2] = target: T2, MTHFS.oxNADA.Cu^2+ complex (Mus musculus, UniProt Q9D110); experiment: MTHFS-mediated folate catabolism in vitro (HPLC, pABG formation); assay type: biochemical; settings: 5 min incubation, five independent experiments
# T2 construct: hexa-histidine tag; made in house; host or cells: E. coli BL21 Star
# T2 sequence (Q9D110 1-203): T1 sequence (Q9D110 1-203)
# Method: Recombinant mouse MTHFS protein (50 μM) was incubated with 50 μM CuCl2, 50 μM NADA (oxidized with equimolar amounts of sodium periodate, extracted with ethyl acetate, and diluted 1:1 with 1 M Tris pH 8.0), in 50 mM Tris pH 8.0 for 5 min, then dialyzed against 2 L of 50 mM Tris pH 8.0 at 4° C. for 5 hours to remove unbound CuCl2 and oxidized NADA. (6S)-[^3H]-5-methylTHF or (6S)-[^3H]-5-formylTHF, were evaporated to dryness using a speedvac, resuspended in 20 μL of 50 μM unlabeled (6S)-5-methylTHF or (6S)-5-formylTHF in 100 mM MES pH 6.5, then approximately 275,000 cpm of the labeled folate was added immediately to either the dialyzed mouse MTHFS protein or the dialysis buffer as a control. The mixture was incubated 5 min at room temperature, then either analyzed immediately by HPLC or flash frozen using dry ice/ethanol. The reactions were spiked with a mixture of unlabeled pABG, (6R,S)-5-formylTHF, and (6S)-5-methylTHF, then analyzed on a Shimadzu HPLC equipped with a diode array UV spectrophotometric detector and a Luna 5μ 250×4.6 mm C18 column (Phenomenex). […] For each analysis, 1.0 ml fractions were collected into scintillation tubes, and the tritium was quantified using a Beckman LS 6500 liquid scintillation counter. […]
# [3] = target: T3, MTHFS (Homo sapiens, UniProt P49914); settings: cited from earlier work
# T3 sequence (P49914 1-203): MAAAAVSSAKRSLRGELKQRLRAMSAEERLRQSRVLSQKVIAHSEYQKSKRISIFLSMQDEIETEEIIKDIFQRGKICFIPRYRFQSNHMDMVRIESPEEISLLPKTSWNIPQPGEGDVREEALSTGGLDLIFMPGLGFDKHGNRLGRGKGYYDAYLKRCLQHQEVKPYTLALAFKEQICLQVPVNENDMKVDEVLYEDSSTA
# [4] = system: MCF-7 cells; experiment: Folate turnover in cultured cells (pulse-chase); assay type: cell-based, human; settings: 20 μM in chase medium
# Method: Cell monolayers at 75% confluence were washed with PBS, then labeled for 12 h in defined αMEM lacking folate and glycine and supplemented with 25 nM (6S)-[^3H]5-formylTHF. For the chase, cell monolayers were washed with 10 ml of PBS, trypsinized, and pelleted by centrifugation. The cells were seeded in triplicate (1×10^6 cells) into 100 mm culture plates containing 10 ml of defined αMEM supplemented with 2 μM folic acid. Catecholamines (20 μM dopamine, NADA, and L-dopa) were prepared freshly and added to the chase media prior to the addition of labeled cells. Cells were harvested at defined time points, the medium was removed and the tritium in the medium was quantified. The cell monolayers were washed with PBS and lysed with 0.2 M ammonium hydroxide. Tritium remaining in the cells was quantified using a Beckman LS 8100 liquid scintillation counter.
# Catecholamine availability may be rate limiting for MTHFS-catalyzed folate catabolism in MCF-7 cells. The effects of exogenous catecholamines on folate turnover rates were determined using pulse-chase analyses in MCF-7 cells. Folate turnover in MCF-7 cells labeled with [^3H]-5-formylTHF is biphasic, with an initial rapid phase of turnover followed by a slower phase (Anguera et al., J. Biol. Chem. 278:29856-29862 (2003), which is hereby incorporated by reference in its entirety). Addition of 20 μM NADA to the chase medium increased the magnitude of the rapid phase of folate turnover by 12% compared to untreated cells (FIG. 11A). […] To distinguish between these two mechanisms, 20 μM dopamine and L-dopa were added to the chase medium. Dopamine is the precursor of NADA, and both dopamine and L-dopa can function as oxidants following oxidation of their diphenolic ring generating dopamine-quinone or dopa-quinone (Rescigno et al., Biochemical Pharmacology 56:1089-1096 (1998); Graham, D. G. Mol. Pharmacol. 14:633-643 (1978), which are hereby incorporated by reference in their entirety). […] The addition of dopamine to the culture medium increased the magnitude of the rapid phase of folate turnover by only 4% relative to untreated cells (FIG. 11A). The minor effect of dopamine on folate turnover may reflect N-acetyltransferase-mediated dopamine acetylation that generating NADA. […] In summary, the pulse chase experiments indicate that NADA may be limiting for in vivo folate catabolism, and NADA may function specifically as the electron acceptor molecule for MTHFS-mediated folate catabolism.
# [5] = system: MCF-7 cells; experiment: Radiolabeled folate accumulation in cultured cells treated with catecholamines; assay type: cell-based, human; settings: 12 h, 25 nM (6S)-[^3H]-5-formylTHF, 0-150 μM catecholamine
# Method: Cell monolayers at 70% confluence in 6-well plates were labeled for 12 h in defined αMEM lacking folate and glycine, but supplemented with 25 nM (6S)-[^3H]5-formylTHF and 0, 25 μM, 50 μM, 75 μM, 100 μM, or 150 μM NADA, dopamine, or epinephrine. Cells were harvested by washing with 5 mL PBS, trypsinized, and pelleted by centrifugation and viable cells (determined by their ability to exclude trypan blue) were quantified. The cell pellets were lysed with 0.2 M ammonium hydroxide, and the intracellular tritium was quantified using a Beckman LS 8100 liquid scintillation counter.
# Because the addition of NADA to the chase medium increased folate turnover rates in MCF-7 cells, the effects of various catecholamines on [^3H]folate accumulation was investigated. Cells were cultured for 12 h in defined αMEM medium containing 25 nM (6S)-[^3H]-5-formylTHF and various concentrations of NADA, dopamine, and epinephrine, and cellular [^3H]folate content was determined.
# [6] = 37° C., pH 6.0, inhibitor of MTHFS, read-out: Ki
Structure (SMILES),"Ki [1, 6]",also measured
"CN(CC1CNc2nc(N)[nH]c(=O)c2N1C=O)c1ccc(C(=O)N[C@@H](CCC(=O)N[C@@H](CCC(=O)N[C@@H](CCC(=O)O)C(=O)O)C(=O)O)C(=O)O)cc1 (mixture of isomers) [(6RS)5-formyl,10-methylTHFGlu3]",20 ± 2 µM,
"CN(CC1CNc2nc(N)[nH]c(=O)c2N1C=O)c1ccc(C(=O)N[C@@H](CCC(=O)O)C(=O)O)cc1 (mixture of isomers) [(6RS)5-formyl,10-methylTHF]",10 ± 1 µM,
"CN(CCC1CNc2nc(N)[nH]c(=O)c2N1C=O)c1ccc(C(=O)N[C@@H](CCC(=O)O)C(=O)O)cc1 (mixture of isomers) [(6RS)5-formyl,10-methylTHHF]",6 ± 3 µM,
Nc1nc2c(c(=O)[nH]1)N(C=O)C(CNc1ccc(C(=O)NC(CCC(=O)NC(CCC(=O)NC(CCC(=O)O)C(=O)O)C(=O)O)C(=O)O)cc1)CN2 (racemic) [(6RS)5-formylTHFGlu3],,"Km ([1]; 37° C., pH 6.0): 0.4 ± 0.1 µM"
Nc1nc2c(c(=O)[nH]1)N(C=O)C(CNc1ccc(C(=O)O)cc1)CN2 (racemic) [(6RS)5-formylTHPteroate],,"Km ([1]; 37° C., pH 6.0): 33 ± 10 µM"
Nc1nc2c(c(=O)[nH]1)NC(CN(C=O)c1ccc(C(=O)N[C@@H](CCC(=O)N[C@@H](CCC(=O)N[C@@H](CCC(=O)O)C(=O)O)C(=O)O)C(=O)O)cc1)CN2 (stereo partly drawn) [10-formylTHF triglutamate],,"Ki ([1]; natural isomer, read-out: Ki for MTHFS): 0.015 µM"
Nc1nc2ncc(CN(C=O)c3ccc(C(=O)N[C@@H](CCC(=O)O)C(=O)O)cc3)nc2c(=O)[nH]1 [10-formylfolic acid],13 ± 6 µM,fold increase of affinity for MTHFS by N^10 formylation of folic acid ([1]; relative to folic acid): ~5 fold
"Nc1nc2c(c(=O)[nH]1)NC(CN(C=O)c1ccc(C(=O)N[C@@H](CCC(=O)O)C(=O)O)cc1)CN2 (stereo partly drawn) [(6R)10-formylTHF, 10-formyltetrahydrofolate]",0.15 µM,fold increased affinity for MTHFS (Ki) compared to the substrate 5-formylTHF (Km) [1]: 56 fold and 60 fold
"Nc1nc2c(c(=O)[nH]1)N(C=O)C(CNc1ccc(C(=O)N[C@@H](CCC(=O)O)C(=O)O)cc1)CN2 (stereo partly drawn) [(6S)5-formylTHF, 5-formyl tetrahydrofolate]",,"Km ([1]; 37° C., pH 6.0): 10 ± 3 µM"
CN1c2c([nH]c(N)nc2=O)NC[C@@H]1CNc1ccc(C(=O)N[C@@H](CCC(=O)O)C(=O)O)cc1 [(6S)-5-methylTHF],,conversion to pABG by reconstituted mouse MTHFS.oxNADA.Cu^2+ protein [2]: Approximately 1%; Ki [3]: 18 µM
N[C@@H](Cc1ccc(O)c(O)c1)C(=O)O [L-dopa],,folate turnover rates compared to untreated cells [4]: did not affect folate turnover rates
CNC[C@H](O)c1ccc(O)c(O)c1 [epinephrine],,[^3H]folate accumulation [5]: Neither the addition of dopamine nor epinephrine to culture media impaired [^3H]folate accumulation

# Now from value to compound, other results behind:
"Ki [1, 6]",Structure (SMILES),also measured
0.7 ± 0.3 µM,"Nc1nc2c(c(=O)[nH]1)N(C=O)C(CCNc1ccc(C(=O)N[C@@H](CCC(=O)O)C(=O)O)cc1)CN2 (mixture of isomers) [(6RS)5-formylTHHF, 5-formyltetrahydrohomofolate]",
0.03 ± 0.01 µM,Nc1nc2c(c(=O)[nH]1)NC(CN(C=O)c1ccc(C(=O)N[C@@H](CCC(=O)N[C@@H](CCC(=O)N[C@@H](CCC(=O)O)C(=O)O)C(=O)O)C(=O)O)cc1)CN2 (mixture of isomers) [(6RS)10-formylTHFGlu3],fold increased affinity (Ki) compared to the substrate 5-formylTHF triglutamate (Km) [1]: 13 fold
0.19 ± 0.02 µM,Nc1nc2c(c(=O)[nH]1)NC(CCN(C=O)c1ccc(C(=O)NC(CCC(=O)O)C(=O)O)cc1)CN2 (racemic) [(6RS)10-formylTHHF],Ki fold lower than the Ki for 5-formylTHHF [1]: 3 fold
5 ± 2 µM,Nc1nc2c(c(=O)[nH]1)NC(CN(C=O)c1ccc(C(=O)O)cc1)CN2 (racemic) [(6RS)10-formylTHPteroate],
17 ± 3 µM,Nc1nc2ncc(CNc3ccc(C(=O)N[C@@H](CCC(=O)N[C@@H](CCC(=O)N[C@@H](CCC(=O)O)C(=O)O)C(=O)O)C(=O)O)cc3)nc2c(=O)[nH]1 [folic acidGlu3],
1 ± 0.3 µM,Nc1nc2ncc(CNc3ccc(C(=O)NC(CCC(=O)NC(CCC(=O)NC(CCC(=O)NC(CCC(=O)NC(CCC(=O)O)C(=O)O)C(=O)O)C(=O)O)C(=O)O)C(=O)O)cc3)nc2c(=O)[nH]1 (stereo not drawn) [folic acidGlu5],
58 ± 5 µM,Nc1nc2ncc(CNc3ccc(C(=O)N[C@@H](CCC(=O)O)C(=O)O)cc3)nc2c(=O)[nH]1 [folic acid],
